From patent publication US20210128674A1, “LHRH-CONJUGATED PRODIGIOSIN AND USES THEREOF” (Worcester Polytechnic Institute, priority 2019, published 2021)
Entries after “also recorded” stand apart in the source; their conditions may differ.

Columns and labels:
[1] = tested on: breast cancer cells with knocked down LHRH receptors (MDA-MB-231); experiment: alamar blue reduction after siRNA knock down of LHRH receptors; assay type: cell-based, human; details: 5 μM; 24, 48 and 72 hours; LHRH receptor knock down
[2] = histopathological and toxicity studies (body weight, clinical signs, H&E of organs); assay type: in vivo, athymic nude mice; details: 10 mg/kg weekly for two weeks, IV; for toxicity / side effects (clinical signs, mortality, body weight): tumor-bearing mice
Method: (§1) Different groups of mice were injected intravenously with each drug through their tail veins. This was done after tumor growth for 14, 21 and 28 days. The mice were injected with 10 mg/kg per week, during the two-week periods in which the effects of drugs were investigated. Following each drug administration, the tumor sizes were monitored with calipers on a daily basis (every 24 hours). In this way, the possible tumor shrinkage, growth or elimination, were monitored on a daily basis. Furthermore, the health status of the mice was monitored on a daily basis. This was done by monitoring the mice for signs of weight loss or altered motor ability in their cages. At the end of study, the mice were euthanized, following the approved IACUC guidelines and procedures. Thereafter, tumor tissues were excised from all of the mice, including tissues from their major organs (kidneys, spleen, liver and lungs).
(§2) Following the in vivo tumor induction and growth experiments, tissues were extracted from the kidneys, spleen, lungs, liver and tumor regions. These were immediately fixed in 4% paraformaldehyde, dehydrated in a graded series of alcohol, and embedded in paraffin. Double doses of 10 mg/kg of PGS and PGS-[D-Lys6]LHRH were then administered (on a weekly basis for two weeks) to female athymic nude mice that were subcutaneously-induced with TNBC. In this way, qualitative toxicity was studied by considering differences in mortality, changes in body weight, clinical signs, gross observations and the histopathology of the lungs, kidneys and the liver at different stages of tumor development. This was done for the different drugs and cancer treatment durations. Daily observations and weight measurements were also used to check for possible animal reactions to the drugs, physiological changes, weight loss/gain, and the general well-being of the mice.
(§3) Hematoxylin and eosin (H and E) staining was also carried out. This was used for the identification of tumor necrosis and the examination of histologic changes that occurred in vital organs, following the administration of the drugs. Briefly, formalin-fixed, paraffin-embedded tissue/organs (tumor, kidneys, liver and lungs) samples (5 μm) were injected with PGS, [D-Lys6]LHRH-conjugated PGS, and DMSO. These were hydrated by passing them through decreasing concentrations (100, 90 &70%) of alcohol baths and water.
(§4) The hydrated tissue sections were then stained in hematoxylin solution for 5 mins. This was followed by rinsing with tap water for 3 minutes and differentiation in 1% acid alcohol for 5 minutes. Tap water was then used to rinse (three times) before dipping the sections in ammonia water for 2 minutes. This was followed by staining with eosin for 10 mins. The treated sliced samples were dehydrated in solution with increasing concentrations of alcohols followed by xylene. Finally, a few drops of Permount Mounting Medium were used to mount the resulting samples. The stained slides were then imaged with a 20× objective lens using a TS100F Nikon microscope (Nikon Instruments Inc., Melville, N.Y., USA) coupled with a DS-Fi3 C camera.

[3] = tested on: MDA-MB 231 induced xenograft breast tumor; experiment: histopathological (H&E) and TEM examination of treated tumor tissue; assay type: in vivo, mice; details: for histopathology of tumor tissue (necrosis): after treatment, H&E
Method: as §2, §3
as §4, with “The stained slides were then imaged with a 20× objective lens using a TS100F Nikon microscope (Nikon Instruments Inc., Melville, N.Y., USA) coupled with a DS-Fi3 C camera.” left out

MDA-MB-231 cells = experiment: confocal fluorescence imaging of cellular uptake and cytotoxicity; assay type: cell-based, human; details: 30 μM; 6 hours
[4] = tested on: MDA-MB-231 human triple negative breast cancer subcutaneous tumor xenografts; experiment: subcutaneous xenograft tumor shrinkage study; assay type: in vivo, Athymic Nude-Foxn1nu strain mice; details: for anti-tumor effect over early, mid and late stages: 14-day, 21-day and 28-day groups, 10 mg/kg IV
Method: In this section, cell culture, tumor induction and drug injection studies were carried out. First, 20 μl of 1×10^6 MDA-MB-231 human triple negative cancer cells were cultured in T75 tissue culture flasks (CELLTREAT, Pepperell, Mass., USA). This was carried out at 37° C. until 70% confluence was reached. The cells were grown under normal atmospheric pressure levels in a “L15^+ medium” that is typically made up of: L-15 medium (ATCC, Manassas, Va., USA), supplemented with 100 I.U./ml penicillin/100 µg/ml streptomycin and 10% FBS (ATCC, Manassas, Va., USA).
Forty 4-week old Athymic Nude-Foxn1nu strain mice with individual weights of ˜17 g each was purchase from Envigo (Somerset, N.J., USA). These animals were approved for use in the current work by the University of Massachusetts Medical School Institutional Animal Care and Use Committee (UMMS IACUC) with docket #A2630-17. All of the animals were maintained and used according to the approved UMMS IACUC procedure and guideline.
Subcutaneous tumor xenografts were induced by the injection of 5.0×10^6 of MDA-MB-231 human triple negative breast cancer cells (suspended in sterile saline) into the interscapular region (for a better angiogenic response). Tumor formation was carefully assessed by palpation. Tumor growth was then monitored daily with the digital calipers. The tumor volume was calculated using the following modified ellipsoidal formula: […]
where length was the longest axis of the tumor and width is the measurement at a right angle to the length.
The mice were randomly chosen in groups of three (for each drugs injection) into their respective treatment groups. These include groups of mice with early stage (14 days after tumor induction), mid stage (21 days after tumor induction) and late stage (28 days after tumor induction) tumors. The weights of the mice and their tumor sizes were monitored and measured (using digital calipers) on a daily basis. These precise volumes and measured weights of the mice were used to guide the administration of the drugs. They were also used to monitor toxicity and side effects associated with the drugs. For each of the study groups, 3 mice each were randomly assigned to injection of 10 mg/kg of the specific drug configuration (PGS, [D-Lys6]LHRH-conjugated PGS, and DMSO).
as §1

[5] = tested on: breast cancer tumor (LHRH receptors on triple negative breast tumor tissue); experiment: drug-tissue adhesion study with drug-coated AFM tips; assay type: binding, mice
Method: In an effort to understand the specificity in the targeting of triple negative breast cancer via the receptors that are over-expressed on the tumor, adhesion measurements were carried out on the control xenograft tissue samples at different stages of tumor development. Adhesion forces and interactions (between the different drug molecules and receptors on the surfaces of the tumor tissues at different stages of development) were explored in an effort to understand the interactions of the drugs with the tumor and non-tumor tissue.
Antigen retrieval was carried out on the fixed tissue. This involved exposing target antigens to receptors on a 10 μm thick microtome tissue slice. These sliced tissues were prepared for adhesion measurements in an Asylum MFP3D-Bio Atomic Force Microscope (AFM) (Asylum Research, Oxford Instrument, CA, USA). The AFM tips RESP-20 AFM tip (Bruker Santa Barbara, Calif., USA) were dip-coated with prodigiosin, or [D-Lys6]LHRH-conjugated prodigiosin using the techniques described in Obayemi et al. (J. Mech. Behav. Biomed. Mater., 68 (2017), pp. 276-286).
A simple AFM tip dip-coating technique (J. D. Obayemi et al. Materials Science and Engineering C. 66, (2016), 51-65, Hampp, E. et al. Res. 27 (22), 2891, Hutter, J. L. et al. Instrum. 64, 1868) (of the drugs) was used to coat the AFM tips at room-temperature (˜23° C.). In addition, a positive control of LHRH peptides was coated onto the AFM tips and used to determine the adhesion forces between the receptors on breast cancer tissue. All of the coated AFM tips were air-dried for about 6 h and kept in a desiccator overnight before the adhesion measurements.
The spring constants of the coated and uncoated AFM tips were measured experimentally using the thermal tune method (J. D. Obayemi, et al. Mater., 68 (2017), 276-286). This was done to obtain the actual spring constants that were used to calculate the pull-off forces from Hooke's law. The adhesion interactions were measured for the following configurations of coatings on the AFM tips and breast cancer tumor at different stages on the mice: […]

[6] = listed as [D-Lys6]LHRH-conjugated PGS
[7] = 21-day (mid stage) group, 10 mg/kg per week IV, two weeks
[8] = 28-day (late stage) group, 10 mg/kg per week IV, two weeks
[9] = day 14 (early stage) group, two IV injections (one per week) of 10 mg/kg

Method for MDA MB 231 cells: The alamar blue cell viability and cytotoxicity assay was used to study the MDA MB 231 cells lines in the log phase of growth. MDA MB 231 cells were harvested with trypsin-EDTA in the presence of Dulbecco Phosphate Buffer (DPBS). 10^4 cells/well were then seeded in 12-well plates in L15+ medium (L15 medium with cell medium supplement of FBS and penicillin/streptomycin). […] Cell viability was monitored using the alamar blue cell viability and cytotoxicity reagent (Thermo Fisher Scientific, Waltham, Mass., USA) at times of 0 h, 18 h, 24 h, 48 h and 72 h, following drug addition. At each time point, the culture medium was replaced with 1 ml of 10% alamar blue solution (in culture medium). The 12-well plates were then incubated at 37° C. for different durations. After each time point, 100 μl of the solution incubated with alamar blue solution (ABS) was transferred into triplicate wells of a black opaque 96-well plate (Thermo Fisher Scientific, Waltham, Mass., USA).
The fluorescence intensities of the cell medium supernatant incubated with ABS were measured at 544 nm excitation and 590 nm emission using a 1420 Victor3 multi-label plate reader (Perkin Elmer, Waltham, Mass., USA). The percentage of alamar blue reduction, the percentage difference in cell population between the treated and untreated cells, and the percentage of cell growth inhibition, were determined using a combination of the ABS and cell viability studies. In this way, the cytotoxicity of the respective conjugated drug molecules was obtained from equations 1 and 2 below.
where, FIsample=fluorescence intensity of the (treated or untreated) cells, FI10% AB=fluorescence intensity of 10% alamar blue reagent (negative control) and FI10% R=fluorescence intensity of 100% reduced alamar blue (positive control).
FItreated=fluorescence intensity of treated cells and FIcells=fluorescence intensity of untreated cells

LHRH-PGS: [D-Lys6]LHRH analog conjugated to prodigiosin at the epsilon (ε) amino side chain of the D-Lys6 moiety
cytotoxicity on co-incubation of LHRH (MDA MB 231 cells): decreased the cytoxicity
percentage alamar blue reduction (cell viability) (MDA MB 231 cells; 15 μM, 25 μM, 30 μM, 18, 24, 48 and 72 h post-treatment): increasing drug concentration had a greater effect on cell growth
percentage cell growth inhibition (MDA MB 231 cells; 15 μM, 25 μM, 30 μM, 72 h): effective at inhibiting the growth
cell viability (percentage alamar blue reduction) in siRNA-treated cells [1]: no significant differences in cell viability
histological / pathological changes in liver, lung and kidneys (H&E) ([2]; listed as [D-Lys6]LHRH-PGS): did not induce any degeneration in the primary organs
histological / pathological changes in liver, lung and kidneys (H&E) [2, 6]: no significant histological or significant pathological changes; also recorded: no evidence of liver cell hyaline degeneration and necrosis; also recorded: no pulmonary edema or hyperplasia; also recorded: glomerular volume of the kidneys was normal; also recorded: no chemotherapeutic drug-induced histological changes and tumor metastasis
toxicity / side effects (clinical signs, mortality, body weight) ([2]; listed as LHRH-prodigiosin): No clinical signs, differences in mortality, or changes in body weight
toxicity / side effects (clinical signs, mortality, body weight) ([2]; listed as [D-Lys6]LHRH-conjugated prodigiosin): minimal; also recorded: without any evidence of toxicity
structural changes of tumor cells/tissue (TEM) ([3]; 21-day and 28-day treatment groups): greater structural changes
histopathology of tumor tissue (necrosis) [3]: exhibited disorder and different sizes
histopathology of tumor tissue (necrosis) [3, 6]: higher levels of necrosis in the tumors
structural changes of actin filaments, vinculin and nuclei (confocal) (MDA-MB-231 cells): more evident
anti-tumor effect over early, mid and late stages ([4]; listed as LHRH-prodigiosin, 10 mg/kg): decrease, shrink or eliminate tumors
anti-tumor effect over early, mid and late stages ([4]; listed as [D-Lys6]LHRH-conjugated PGS, 10 mg/kg): significant anti-tumor effects; also recorded: highest therapeutic activity
anti-tumor effect over early, mid and late stages ([4]; listed as [D-Lys6]LHRH-conjugated prodigiosin, 10 mg/kg): shrunk or eliminate the induced tumor
decrease in xenograft volume compared to unconjugated PGS [4, 7]: 95.6%
resulting tumor volume [4, 7]: 3.93 mm^3
tumor outcome, mid stage [4, 7]: significant shrinkage
percentage reduction in xenograft tumor volume compared to unconjugated PGS [4, 8]: 83.4%
xenograft tumor size [4, 8]: 49.9 mm^3
tumor outcome, late stage ([4]; 28-day (late stage) group, 10 mg/kg per week IV, two weeks, 10 mg/kg): significant tumor shrinkage
tumor outcome, late stage ([4]; 28-day (late stage) group, 10 mg/kg per week IV, two weeks, listed as [D-Lys6]LHRH-conjugated prodigiosin, 10 mg/kg): significant shrinkage
tumor outcome, early stage ([4]; day 14 (early stage) group, two IV injections (one per week) of 10 mg/kg, listed as LHRH-conjugated prodigiosin, 10 mg/kg): elimination of early stage breast tumors
tumor outcome, early stage ([4]; day 14 (early stage) group, two IV injections (one per week) of 10 mg/kg, listed as [D-Lys6]LHRH-conjugated PGS, 10 mg/kg): tumor elimination
tumor outcome, early stage ([4]; day 14 (early stage) group, two IV injections (one per week) of 10 mg/kg, listed as [D-Lys6]LHRH-conjugated prodigiosin, 10 mg/kg): eliminated the tumors
adhesion force relative to unconjugated PGS, early stage ([5]; early stage breast tumor): nearly three times
adhesion force relative to unconjugated PGS, late stage ([5]; late stage breast tumor): four times
adhesion force relative to unconjugated PGS, mid stage ([5]; mid stage breast tumor): three times

CCCCCC1=C/C(=C/c2[nH]c(-c3ccc[nH]3)cc2OC)N=C1C [PGS, 4-methoxy-5-[(Z)-(5-methyl-4-pentyl-2H-pyrrol-2-ylidene)methyl]-1H,1′H-2,2′-bipyrrole, reference compound]
cell viability (percentage alamar blue reduction) in siRNA-treated cells [1]: no significant differences in cell viability
histological / pathological changes in liver, lung and kidneys (H&E) [2]: no significant histological or significant pathological changes
structural changes of actin filaments, vinculin and nuclei (confocal) (MDA-MB-231 cells): degradation, disorganization and depolymerization of the actin filaments and vinculin structures
resulting tumor volume [4, 7]: 90.11 mm^3
xenograft tumor size [4, 8]: 300.3 mm^3
final tumor sizes [4, 9]: ~29.42 mm^3
tumor outcome, early stage [4, 9]: some tumor shrinkage
